Reference: patent US5372940A, “D-pantolactone hydrolase and process for the preparation thereof” (Fuji Yakuhin Kogyo Kabushiki Kaisha, priority 1990, dated 1994)

System: D-pantolactone hydrolase purified from Fusarium oxysporum (IFO 5942)
Assay: Substrate specificity (Km) and inhibition of purified D-pantolactone hydrolase
Format: biochemical
Details: for Km: purified enzyme, the compound is the substrate, read-out: Km (Michaelis constant)
Protocol: Fusarium oxysporum (IFO 5942) was inoculated into each of thirty 2l shake flasks each containing 500 ml of culture medium containing 5% sucrose, 0.4% sodium nitrate, 0.2% dipotassium monohydrogenphosphate, 0.05% magnesium sulfate, 0.05% potassium chloride, 0.001% ferric sulfate and 0.002% zinc sulfate (pH 6.0), and subjected to shaking culture at 28° C. for 7 days. The combined culture broths were centrifuged to give 800 g of wet mass of cells. The cells were triturated by means of a DYNO®-MILL with 2.5 l of 0.1 mM dithiothreitol-containing 20 mM Tris-HCl buffer (pH 7.4), and the mixture was centrifuged to give 2.3 l of cell-free extract. […] Furthermore, 572 g of potassium chloride were added to, and dissolved in, this cell-free extract and the mixture was loaded on an Octyl sepharose CL4B column (3×28 cm) and eluted with 3M potassium chloride. 2.4 l of eluted active fractions were dialyzed against 0.1 mM dithiothreitol-containing 20 mM Tris-HCl buffer (pH 7.4). The resultant 2.9 l of enzyme solution were loaded on a DEAE Sephacel column (5.5×34 cm) and eluted with a linear gradient of 0 to 0.5M potassium chloride. 255 ml of eluted active fractions were loaded on a hydroxyapatite column (5×10 cm) and eluted with a linear gradient of 0 to 0.88M potassium phosphate buffer (pH 7.0). 425 ml of eluted active fractions were subjected to ultrafiltration using an Amicon YM 10, and 115 ml of the resultant enzyme concentrate were dialyzed against 0.1 mM dithiothreitol-containing 20 mM Tris-HCl buffer (pH 7.4). 190 ml of the enzyme solution were subjected to ultrafiltration using an Amicon YM 30 and 14.5 ml of the resultant enzyme solution was loaded on a sephacryl S-300 column (2.5×95 cm) and eluted with 0.2M potassium chloride. 44.5 ml of eluted active fractions were dialyzed against 0.1 mM dithiothreitol-containing 20 mM Tris-HCl buffer (pH 7.4), then loaded on a Q sepharose Fast Flow column (1.8×3 cm) and eluted with a linear gradient of 0 to 1M potassium chloride. 7 ml of eluted active fractions were dialyzed against 0.1 mM dithiothreitol-containing 20 mM Tris-HCl buffer (pH 7.4) to obtain 6.8 ml of purified enzyme solution.
In determining enzyme activity, the enzyme activity which hydrolyzes 1 μmol of D-pantolactone in one minute under the conditions specified below was taken as one unit (U).
50 μl of enzyme solution were added to 200 μl of 10% D-pantolactone solution in 0.5M PIPES buffer (pH 7.0). After reaction at 30° C. for 120 minutes, 250 μl of 2 mM EDTA solution in methanol were added to stop the reaction. The resultant reaction mixture was subjected to HPLC (Nucleosil 5C18 4.6×150 mm; eluent 10% methanol; rate of flow 1 ml/min; detection wavelength 230 nm) to determine the % hydrolysis. For example, where the % hydrolysis is 1%, the enzyme activity/ml of enzyme solution corresponds to 1.6×10^-2 U/ml.
Values in parentheses are those for the activity of the respective metal ions at 2.5 mM concentration as measured with the activity value in the case of no addition of metal ions taken as 100.

Row | Compound | Km | Inhibition of enzyme activity (5 mM EDTA)
1 | O=C1O[C@@H]([C@H](O)CO)[C@H](O)[C@H]1O [D-galactonolactone] | 3.6 mM | –
2 | CC1(C)COC(=O)[C@@H]1O [D-pantolactone] | 82 mM | –

The next lines start with the values.

Row | Km | Inhibition of enzyme activity (5 mM EDTA) | Compound
3 | 29 mM | – | O=C1O[C@@H]([C@H](O)CO)[C@@H](O)[C@H]1O [D-gulonolactone]
4 | – | inhibited completely | O=C(O)CN(CCN(CC(=O)O)CC(=O)O)CC(=O)O [EDTA, reference compound]
5 | 23 mM | – | O=C1O[C@@H]([C@@H](O)CO)[C@@H](O)[C@H]1O [L-mannonolactone]
